Experimental data as given in patent publication US10322111B2, “Chemokine receptor binding heterocyclic compounds with enhanced efficacy” (Genzyme Corporation, priority 2001, dated 2019).
Where two headings read alike, the source gives them in different places.

System: CFU-GM, BFU-E and CFU-GEMM progenitor cells
Details: 80 μg/kg s.c.

Q: For `c1cc(CN2CCCNCCNCCCNCC2)ccc1CN1CCCNCCNCCCNCC1` [AMD3100, 1,1′-[1,4-phenylene-bis(methylene)]-bis-1,4,8,11-tetraazacyclotetradecane], which “Cycling Status of Progenitors, BFU-E” value (P1, T = 1 h after injection) is on record?
A: Its value is 0%.

Q: And the “Cycling Status of Progenitors, CFU-GEMM” value (P1, T = 1 h after injection)?
A: Its value is 0%.

Q: What about the “Cycling Status of Progenitors, CFU-GM” value (P1, T = 1 h after injection) of the same molecule?
A: Its value is 1%.

Q: What about the “Cycling Status of Progenitors, CFU-GM, AGAR Culture” value (shortened to “Cycling Status … AGAR Culture”) (P1, T = 1 h after injection) of the same molecule?
A: The value was 0%.

Q: What about the “Cycling Status of Progenitors, BFU-E” value (P1, T = 3 h after injection) of the same molecule?
A: The value was 13%.

Q: And the “Cycling Status of Progenitors, CFU-GEMM” value (P1, T = 3 h after injection)?
A: The value was 7%.

Q: And the “Cycling Status of Progenitors, CFU-GM” value (P1, T = 3 h after injection)?
A: The value was 1%.

Q: What about the “Cycling Status … AGAR Culture” value (P1, T = 3 h after injection) of the same molecule?
A: Its value is 0%.

Q: What about the “Cycling Status of Progenitors, BFU-E” value (P1, T = 6 h after injection) of the same molecule?
A: The value was 0%.

Q: What about the “Cycling Status of Progenitors, CFU-GEMM” value (P1, T = 6 h after injection) of the same molecule?
A: Its value is 0%.

Q: What about the “Cycling Status of Progenitors, CFU-GM” value (P1, T = 6 h after injection) of the same molecule?
A: The value was 0%.

Q: What about the “Cycling Status … AGAR Culture” value (P1, T = 6 h after injection) of the same molecule?
A: Its value is 0%.

Q: And the “Cycling Status of Progenitors, BFU-E” value (P1, T = 9 h after injection)?
A: The value was 11%.

Q: And the “Cycling Status of Progenitors, CFU-GEMM” value (P1, T = 9 h after injection)?
A: The value was 0%.

Q: And the “Cycling Status of Progenitors, CFU-GM” value (P1, T = 9 h after injection)?
A: The value was 2%.

Q: And the “Cycling Status of Progenitors, BFU-E” value (P1, T = 24 h after injection)?
A: The value was 0%.

Q: What about the “Cycling Status of Progenitors, CFU-GEMM” value (P1, T = 24 h after injection) of the same molecule?
A: The value was 0%.

Q: And the “Cycling Status of Progenitors, CFU-GM” value (P1, T = 24 h after injection)?
A: Its value is 0%.

Q: And the “Cycling Status of Progenitors, BFU-E” value (P2, T = 1 h after injection)?
A: The value was 3%.

Q: And the “Cycling Status of Progenitors, CFU-GEMM” value (P2, T = 1 h after injection)?
A: The value was 6%.

Q: And the “Cycling Status of Progenitors, CFU-GM” value (P2, T = 1 h after injection)?
A: Its value is 0%.

Q: And the “Cycling Status … AGAR Culture” value (P2, T = 1 h after injection)?
A: The value was 0%.

Q: And the “Cycling Status of Progenitors, BFU-E” value (P2, T = 3 h after injection)?
A: The value was 0%.

Q: And the “Cycling Status of Progenitors, CFU-GEMM” value (P2, T = 3 h after injection)?
A: Its value is 0%.

Q: What about the “Cycling Status of Progenitors, CFU-GM” value (P2, T = 3 h after injection) of the same molecule?
A: The value was 2%.

Q: What about the “Cycling Status … AGAR Culture” value (P2, T = 3 h after injection) of the same molecule?
A: The value was 1%.

Q: And the “Cycling Status of Progenitors, BFU-E” value (P2, T = 6 h after injection)?
A: The value was 0%.

Q: And the “Cycling Status of Progenitors, CFU-GEMM” value (P2, T = 6 h after injection)?
A: Its value is 0%.

Q: What about the “Cycling Status of Progenitors, CFU-GM” value (P2, T = 6 h after injection) of the same molecule?
A: The value was 0%.

Q: And the “Cycling Status … AGAR Culture” value (P2, T = 6 h after injection)?
A: The value was 3%.

Q: And the “Cycling Status of Progenitors, BFU-E” value (P2, T = 9 h after injection)?
A: Its value is 0%.

Q: What about the “Cycling Status of Progenitors, CFU-GEMM” value (P2, T = 9 h after injection) of the same molecule?
A: The value was 4%.

Q: What about the “Cycling Status of Progenitors, CFU-GM” value (P2, T = 9 h after injection) of the same molecule?
A: Its value is 0%.

Q: And the “Cycling Status … AGAR Culture” value (P2, T = 9 h after injection)?
A: Its value is 0%.

Q: And the “Cycling Status of Progenitors, BFU-E” value (P2, T = 24 h after injection)?
A: The value was 2%.

Q: And the “Cycling Status of Progenitors, CFU-GEMM” value (P2, T = 24 h after injection)?
A: The value was 0%.

Q: What about the “Cycling Status of Progenitors, CFU-GM” value (P2, T = 24 h after injection) of the same molecule?
A: The value was 3%.

Q: What about the “Cycling Status … AGAR Culture” value (P2, T = 24 h after injection) of the same molecule?
A: The value was 0%.

Q: What about the “Cycling Status of Progenitors, BFU-E” value (P3, T = 1 h after injection) of the same molecule?
A: Its value is 0%.

Q: And the “Cycling Status of Progenitors, CFU-GEMM” value (P3, T = 1 h after injection)?
A: The value was 0%.

Q: And the “Cycling Status of Progenitors, CFU-GM” value (P3, T = 1 h after injection)?
A: Its value is 0%.

Q: And the “Cycling Status … AGAR Culture” value (P3, T = 1 h after injection)?
A: The value was 0%.

Q: And the “Cycling Status of Progenitors, BFU-E” value (P3, T = 3 h after injection)?
A: Its value is 0%.

Q: And the “Cycling Status of Progenitors, CFU-GEMM” value (P3, T = 3 h after injection)?
A: Its value is 0%.

Q: And the “Cycling Status of Progenitors, CFU-GM” value (P3, T = 3 h after injection)?
A: The value was 1%.

Q: What about the “Cycling Status … AGAR Culture” value (P3, T = 3 h after injection) of the same molecule?
A: The value was 0%.

Q: And the “Cycling Status of Progenitors, BFU-E” value (P3, T = 6 h after injection)?
A: Its value is 0%.

Q: What about the “Cycling Status of Progenitors, CFU-GEMM” value (P3, T = 6 h after injection) of the same molecule?
A: The value was 0%.

Q: What about the “Cycling Status of Progenitors, CFU-GM” value (P3, T = 6 h after injection) of the same molecule?
A: The value was 0%.

Q: What about the “Cycling Status … AGAR Culture” value (P3, T = 6 h after injection) of the same molecule?
A: The value was 3%.

Q: What about the “Cycling Status of Progenitors, BFU-E” value (P3, T = 9 h after injection) of the same molecule?
A: The value was 0%.

Q: And the “Cycling Status of Progenitors, CFU-GEMM” value (P3, T = 9 h after injection)?
A: The value was 0%.

Q: What about the “Cycling Status of Progenitors, CFU-GM” value (P3, T = 9 h after injection) of the same molecule?
A: The value was 0%.

Q: What about the “Cycling Status … AGAR Culture” value (P3, T = 9 h after injection) of the same molecule?
A: The value was 0%.

Q: What about the “Cycling Status of Progenitors, BFU-E” value (P3, T = 24 h after injection) of the same molecule?
A: The value was 0%.

Q: What about the “Cycling Status of Progenitors, CFU-GEMM” value (P3, T = 24 h after injection) of the same molecule?
A: The value was 0%.

Q: What about the “Cycling Status of Progenitors, CFU-GM” value (P3, T = 24 h after injection) of the same molecule?
A: The value was 0%.

Q: What about the “Cycling Status … AGAR Culture” value (P3, T = 24 h after injection) of the same molecule?
A: The value was 0%.

Q: And the “Cycling Status of Progenitors, BFU-E” value (P4, T = 1 h after injection)?
A: Its value is 0%.

Q: And the “Cycling Status of Progenitors, CFU-GEMM” value (P4, T = 1 h after injection)?
A: Its value is 0%.

Q: What about the “Cycling Status of Progenitors, CFU-GM” value (P4, T = 1 h after injection) of the same molecule?
A: Its value is 0%.

Q: What about the “Cycling Status … AGAR Culture” value (P4, T = 1 h after injection) of the same molecule?
A: The value was 0%.

Q: And the “Cycling Status of Progenitors, BFU-E” value (P4, T = 3 h after injection)?
A: The value was 9%.

Q: What about the “Cycling Status of Progenitors, CFU-GEMM” value (P4, T = 3 h after injection) of the same molecule?
A: Its value is 0%.

Q: What about the “Cycling Status of Progenitors, CFU-GM” value (P4, T = 3 h after injection) of the same molecule?
A: Its value is 5%.

Q: And the “Cycling Status … AGAR Culture” value (P4, T = 3 h after injection)?
A: The value was 0%.

Q: And the “Cycling Status of Progenitors, BFU-E” value (P4, T = 6 h after injection)?
A: The value was 0%.

Q: And the “Cycling Status of Progenitors, CFU-GEMM” value (P4, T = 6 h after injection)?
A: The value was 8%.

Q: What about the “Cycling Status of Progenitors, CFU-GM” value (P4, T = 6 h after injection) of the same molecule?
A: The value was 0%.

Q: What about the “Cycling Status … AGAR Culture” value (P4, T = 6 h after injection) of the same molecule?
A: Its value is 0%.

Q: And the “Cycling Status of Progenitors, BFU-E” value (P4, T = 9 h after injection)?
A: The value was 0%.

Q: And the “Cycling Status of Progenitors, CFU-GEMM” value (P4, T = 9 h after injection)?
A: Its value is 0%.

Q: What about the “Cycling Status of Progenitors, CFU-GM” value (P4, T = 9 h after injection) of the same molecule?
A: Its value is 0%.

Q: And the “Cycling Status … AGAR Culture” value (P4, T = 9 h after injection)?
A: Its value is 0%.

Q: What about the “Cycling Status of Progenitors, BFU-E” value (P4, T = 24 h after injection) of the same molecule?
A: Its value is 3%.

Q: And the “Cycling Status of Progenitors, CFU-GEMM” value (P4, T = 24 h after injection)?
A: The value was 0%.

Q: And the “Cycling Status of Progenitors, CFU-GM” value (P4, T = 24 h after injection)?
A: The value was 5%.

Q: What about the “Cycling Status … AGAR Culture” value (P4, T = 24 h after injection) of the same molecule?
A: Its value is 0%.

Q: And the “Cycling Status of Progenitors, BFU-E” value (P5, T = 1 h after injection)?
A: The value was 0%.

Q: And the “Cycling Status of Progenitors, CFU-GEMM” value (P5, T = 1 h after injection)?
A: Its value is 0%.

Q: And the “Cycling Status of Progenitors, CFU-GM” value (P5, T = 1 h after injection)?
A: Its value is 0%.
